System: Lck
Assay: Lck chemical inhibition assay, CD69 on A-770041-treated c259 TCR-T cells
Type: cell-based, human
Conditions: c259 TCR-T cells treated 1 h with A-770041, U87 with NY-ESO-1 peptides, 4 h, CD69 and TNFα
Method: U87 cells (50,000) in 100 μl of DMEM were seeded per well in a 96-well flat-bottom plate and incubated overnight. T cells were treated with the appropriate concentration of A-770041 for 1 h. The DMEM media were discarded and 50,000 A-770041-treated T cells were added to each well in 200 μl of RPMI media. Cells were incubated for 4 h at 37 ^∘C and 5% CO2.
Cells were stained for 20 min at 4 ^∘C, washed with PBS and analysed using a BD X-20 or a Cytoflex LX flow cytometer (Beckman Couter). Data were analysed using FlowJo v.10, RRID:SCR008520 (BD Biosciences) and GraphPad Prism, RRID:SCR002798 (GraphPad Software).

With `COc1cc(-c2nn([C@H]3CC[C@H](N4CCN(C(C)=O)CC4)CC3)c3ncnc(N)c23)ccc1NC(=O)c1cc2ccccc2n1C` [A-770041] the “effect of Lck inhibition on T cell ligand discrimination” value was “increases T cell ligand discrimination”.

— paper PMC7618719, “Generation of T cells with reduced off-target cross-reactivities by engineering co-signalling receptors” (Nature Biomedical Engineering, 2026)
